In US8952024B2, “Herbicidal pyrimidone derivatives” (E I du Pont de Nemours and Company, priority 2009, dated 2015):
Where two headings read alike, the source gives them in different places.

How the values were obtained:
Type in all cases: in vivo
[1] = system: winter barley (Hordeum vulgare); test: Test B postemergence plant response
In short: (§1)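 Plants at the 1- to 4-leaf stage (2 to 18 cm tall), grown in pots of peat moss/vermiculite medium with wetting agent and starter nutrients, received postemergence applications of test chemicals. After 13 to 15 days in a greenhouse, injury was rated visually against untreated controls on a 0 (no effect) to 100 (complete control) scale.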

[2] = system: canarygrass (Phalaris minor); test: Test B postemergence plant response
In short: as §1

[3] = system: chickweed (Stellaria media); test: Test B postemergence plant response
In short: as §1

[4] = system: Italian ryegrass (Lolium multiflorum); test: Test B pre-/postemergence plant response; conditions: for pest or weed control at 31 g/ha: 31 g ai/ha; for pest or weed control at 125 g/ha: 125 g ai/ha
In short: (§2)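 Pre-em in loam/sand; post-em at 1–4 leaf (2–18 cm) in peat mix. Solvent + surfactant formulation. Greenhouse 13–15 d; visual % control vs untreated, 0–100.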

[5] = system: soybean (Glycine max); test: Test B pre-/postemergence plant response
In short: as §2

[6] = system: blackgrass (Alopecurus myosuroides); test: Test B pre-/postemergence plant response; conditions: for pest or weed control at 31 g/ha: 31 g ai/ha; for pest or weed control at 125 g/ha: 125 g ai/ha
In short: as §2

[7] = system: corn (Zea mays); test: Test B pre-/postemergence plant response; conditions: for Corn plant response rating (crop injury, 0 = no effect, 100 = complete kill) at 31 g/ha: 31 g ai/ha; for Corn plant response rating (crop injury, 0 = no effect, 100 = complete kill) at 125 g/ha: 125 g ai/ha
In short: as §2

[8] = system: bermudagrass (Cynodon dactylon); test: Test B pre-/postemergence plant response; conditions: for pest or weed control at 31 g/ha: 31 g ai/ha; for pest or weed control at 125 g/ha: 125 g ai/ha
In short: as §2

[9] = system: johnsongrass (Sorghum halepense); test: Test B pre-/postemergence plant response; conditions: for pest or weed control at 31 g/ha: 31 g ai/ha; for pest or weed control at 125 g/ha: 125 g ai/ha
In short: as §2

[10] = system: goosegrass (Eleusine indica); test: Test B pre-/postemergence plant response; conditions: for pest or weed control at 31 g/ha: 31 g ai/ha; for pest or weed control at 125 g/ha: 125 g ai/ha
In short: as §2

[11] = 62 g ai/ha, postemergence, 0 is no effect, 100 is complete control, 13 to 15 days
[12] = Preemergence, 250 g ai/ha, 0 to 100 scale

COCCCn1c(-c2ccccc2)ncc(C(=O)C2=C(O)CCCC2=O)c1=O [Compound 81, 5-[(2-hydroxy-6-oxo-cyclohexen-1-yl)carbonyl]-3-(3-methoxypropyl)-2-phenyl-4(3H)-pyrimidinone]
Barley plant response rating (0 to 100 scale) [1, 11]: 0 | plant injury at 31 g/ha ([1]; Hordeum vulgare, post-emergence, 31 g ai/ha, postemergence, scale 0 to 100, 0 is no effect, 100 is complete control, read-out: Plant response rating, Barley): 0% | plant injury at 125 g/ha ([1]; Hordeum vulgare, post-emergence, Postemergence, 125 g ai/ha, visual rating after 13 to 15 days, scale 0 (no effect) to 100 (complete control)): 0% | plant injury at 250 g/ha ([1]; Hordeum vulgare, post-emergence, Postemergence, 250 g ai/ha, scale 0 to 100 (0 no effect, 100 complete control), read-out: Plant response rating, Barley): 5% | Canarygrass plant response rating (0 to 100 scale) [2, 11]: 5 | pest or weed control at 31 g/ha ([2]; Phalaris minor, post-emergence, 360 h, 31 g ai/ha, postemergence, scale 0 to 100, 0 is no effect, 100 is complete control, read-out: Plant response rating, Canarygrass): 0% | pest or weed control at 125 g/ha ([2]; Phalaris minor, post-emergence, 360 h, Postemergence, 125 g ai/ha, visual rating after 13 to 15 days, scale 0 (no effect) to 100 (complete control)): 10% | pest or weed control at 250 g/ha ([2]; Phalaris minor, post-emergence, 360 h, Postemergence, 250 g ai/ha, scale 0 to 100 (0 no effect, 100 complete control), read-out: Plant response rating, Canarygrass): 20% | Chickweed plant response rating (0 to 100 scale) [3, 11]: 98 | pest or weed control at 31 g/ha ([3]; Stellaria media, post-emergence, 360 h, 31 g ai/ha, postemergence, scale 0 to 100, 0 is no effect, 100 is complete control, read-out: Plant response rating, Chickweed): 95% | pest or weed control at 125 g/ha ([3]; Stellaria media, post-emergence, 360 h, Postemergence, 125 g ai/ha, visual rating after 13 to 15 days, scale 0 (no effect) to 100 (complete control)): 98% | pest or weed control at 250 g/ha ([3]; Stellaria media, post-emergence, 360 h, Postemergence, 250 g ai/ha, scale 0 to 100 (0 no effect, 100 complete control), read-out: Plant response rating, Chickweed): 100% | Ryegrass, Italian plant response rating (0 to 100 scale) [4, 11]: 5 | pest or weed control at 31 g/ha ([4]; Lolium multiflorum, post-emergence, postemergence, scale 0 to 100, 0 is no effect, 100 is complete control, read-out: Plant response rating, Ryegrass, Italian): 0% | pest or weed control at 125 g/ha ([4]; Lolium multiflorum, post-emergence, Postemergence, visual rating after 13 to 15 days, scale 0 (no effect) to 100 (complete control)): 45% | pest or weed control at 250 g/ha ([4]; Lolium multiflorum, post-emergence, Postemergence, 250 g ai/ha, scale 0 to 100 (0 no effect, 100 complete control), read-out: Plant response rating, Ryegrass, Italian): 55% | pest or weed control at 31 g/ha ([4]; Lolium multiflorum, pre-emergence, Preemergence, scale 0 to 100 (0 no effect, 100 complete control), read-out: Plant response rating, Ryegrass, Italian): 0% | pest or weed control at 62 g/ha ([4]; Lolium multiflorum, pre-emergence, Preemergence, 62 g ai/ha, scale 0 to 100 (0 no effect, 100 complete control), read-out: Plant response rating, Ryegrass, Italian): 0% | pest or weed control at 125 g/ha ([4]; Lolium multiflorum, pre-emergence, Preemergence, scale 0 to 100, 0 no effect, 100 complete control, read-out: Plant response rating, Ryegrass, Italian): 0% | Ryegrass, Italian plant response rating [4, 12]: 0 | Soybean plant response rating (0 to 100 scale) [5, 11]: 95 | plant injury at 31 g/ha ([5]; Glycine max, post-emergence, 31 g ai/ha, postemergence, scale 0 to 100, 0 is no effect, 100 is complete control, read-out: Plant response rating, Soybean): 85% | plant injury at 125 g/ha ([5]; Glycine max, post-emergence, Postemergence, 125 g ai/ha, visual rating after 13 to 15 days, scale 0 (no effect) to 100 (complete control)): 95% | plant injury at 250 g/ha ([5]; Glycine max, post-emergence, Postemergence, 250 g ai/ha, scale 0 to 100 (0 no effect, 100 complete control), read-out: Plant response rating, Soybean): 98% | Blackgrass plant response rating (0 to 100 scale) [6, 11]: 10 | pest or weed control at 31 g/ha ([6]; Alopecurus myosuroides, post-emergence, 360 h, postemergence, scale 0 to 100, 0 is no effect, 100 is complete control, read-out: Plant response rating, Blackgrass): 5% | pest or weed control at 125 g/ha ([6]; Alopecurus myosuroides, post-emergence, 360 h, Postemergence, visual rating after 13 to 15 days, scale 0 (no effect) to 100 (complete control)): 30% | pest or weed control at 250 g/ha ([6]; Alopecurus myosuroides, post-emergence, 360 h, Postemergence, 250 g ai/ha, scale 0 to 100 (0 no effect, 100 complete control), read-out: Plant response rating, Blackgrass): 30% | pest or weed control at 31 g/ha ([6]; Alopecurus myosuroides, pre-emergence, 360 h, Preemergence, scale 0 to 100 (0 no effect, 100 complete control), read-out: Plant response rating, Blackgrass): 0% | pest or weed control at 62 g/ha ([6]; Alopecurus myosuroides, pre-emergence, 360 h, Preemergence, 62 g ai/ha, scale 0 to 100, 0 no effect, 100 complete control, read-out: Plant response rating, Blackgrass): 0% | pest or weed control at 125 g/ha ([6]; Alopecurus myosuroides, pre-emergence, 360 h, Preemergence, scale 0 to 100, 0 no effect, 100 complete control, read-out: Plant response rating, Blackgrass): 35% | Blackgrass plant response rating [6, 12]: 35 | Corn plant response rating (0 to 100 scale) [7, 11]: 10 | Corn plant response rating [7, 12]: 55 | Corn plant response rating (crop injury, 0 = no effect, 100 = complete kill) at 31 g/ha ([7]; Zea mays, post-emergence, postemergence, scale 0 to 100, 0 is no effect, 100 is complete control): 5% | Corn plant response rating (crop injury, 0 = no effect, 100 = complete kill) at 125 g/ha ([7]; Zea mays, post-emergence, Postemergence, visual rating after 13 to 15 days, scale 0 (no effect) to 100 (complete control)): 15% | Corn plant response rating (crop injury, 0 = no effect, 100 = complete kill) at 250 g/ha ([7]; Zea mays, post-emergence, Postemergence, 250 g ai/ha, scale 0 to 100 (0 no effect, 100 complete control)): 65% | Corn plant response rating (crop injury, 0 = no effect, 100 = complete kill) at 31 g/ha ([7]; Zea mays, pre-emergence, Preemergence, scale 0 to 100 (0 no effect, 100 complete control)): 40% | Corn plant response rating (crop injury, 0 = no effect, 100 = complete kill) at 62 g/ha ([7]; Zea mays, pre-emergence, Preemergence, 62 g ai/ha, scale 0 to 100, 0 no effect, 100 complete control): 40% | Corn plant response rating (crop injury, 0 = no effect, 100 = complete kill) at 125 g/ha ([7]; Zea mays, pre-emergence, Preemergence, scale 0 to 100, 0 no effect, 100 complete control): 50% | Bermudagrass plant response rating (0 to 100 scale) [8, 11]: 85 | pest or weed control at 31 g/ha ([8]; Cynodon dactylon, post-emergence, postemergence, scale 0 to 100, 0 is no effect, 100 is complete control, read-out: Plant response rating, Bermudagrass): 85% | pest or weed control at 125 g/ha ([8]; Cynodon dactylon, post-emergence, Postemergence, visual rating after 13 to 15 days, scale 0 (no effect) to 100 (complete control)): 95% | pest or weed control at 250 g/ha ([8]; Cynodon dactylon, post-emergence, Postemergence, 250 g ai/ha, scale 0 to 100 (0 no effect, 100 complete control), read-out: Plant response rating, Bermudagrass): 95% | pest or weed control at 31 g/ha ([8]; Cynodon dactylon, pre-emergence, Preemergence, scale 0 to 100 (0 no effect, 100 complete control), read-out: Plant response rating, Bermudagrass): 100% | pest or weed control at 62 g/ha ([8]; Cynodon dactylon, pre-emergence, Preemergence, 62 g ai/ha, scale 0 to 100, 0 no effect, 100 complete control, read-out: Plant response rating, Bermudagrass): 100% | pest or weed control at 125 g/ha ([8]; Cynodon dactylon, pre-emergence, Preemergence, scale 0 to 100, 0 no effect, 100 complete control, read-out: Plant response rating, Bermudagrass): 100% | Bermudagrass plant response rating ([8]; Preemergence, 250 g ai/ha, 0 to 100 scale, 0 no effect, 100 complete control): 100 | Johnsongrass plant response rating (0 to 100 scale) [9, 11]: 10 | Johnsongrass plant response rating [9, 12]: 90 | pest or weed control at 31 g/ha ([9]; Sorghum halepense, post-emergence, postemergence, scale 0 to 100, 0 is no effect, 100 is complete control, read-out: Plant response rating, Johnsongrass): 5% | pest or weed control at 125 g/ha ([9]; Sorghum halepense, post-emergence, Postemergence, visual rating after 13 to 15 days, scale 0 (no effect) to 100 (complete control)): 75% | pest or weed control at 250 g/ha ([9]; Sorghum halepense, post-emergence, Postemergence, 250 g ai/ha, scale 0 to 100 (0 no effect, 100 complete control), read-out: Plant response rating, Johnsongrass): 100% | pest or weed control at 31 g/ha ([9]; Sorghum halepense, pre-emergence, Preemergence, scale 0 to 100 (0 no effect, 100 complete control), read-out: Plant response rating, Johnsongrass): 10% | pest or weed control at 62 g/ha ([9]; Sorghum halepense, pre-emergence, Preemergence, 62 g ai/ha, scale 0 to 100, 0 no effect, 100 complete control, read-out: Plant response rating, Johnsongrass): 80% | pest or weed control at 125 g/ha ([9]; Sorghum halepense, pre-emergence, Preemergence, scale 0 to 100, 0 no effect, 100 complete control, read-out: Plant response rating, Johnsongrass): 90% | Goosegrass plant response rating (0 to 100 scale) [10, 11]: 70 | pest or weed control at 31 g/ha ([10]; Eleusine indica, post-emergence, postemergence, scale 0 to 100, 0 is no effect, 100 is complete control, read-out: Plant response rating, Goosegrass): 65% | pest or weed control at 125 g/ha ([10]; Eleusine indica, post-emergence, Postemergence, visual rating after 13 to 15 days, scale 0 (no effect) to 100 (complete control)): 70% | pest or weed control at 250 g/ha ([10]; Eleusine indica, post-emergence, Postemergence, 250 g ai/ha, scale 0 to 100 (0 no effect, 100 complete control), read-out: Plant response rating, Goosegrass): 80% | pest or weed control at 31 g/ha ([10]; Eleusine indica, pre-emergence, Preemergence, scale 0 to 100 (0 no effect, 100 complete control), read-out: Plant response rating, Goosegrass): 98% | pest or weed control at 62 g/ha ([10]; Eleusine indica, pre-emergence, Preemergence, 62 g ai/ha, scale 0 to 100, 0 no effect, 100 complete control, read-out: Plant response rating, Goosegrass): 98% | pest or weed control at 125 g/ha ([10]; Eleusine indica, pre-emergence, Preemergence, scale 0 to 100, 0 no effect, 100 complete control, read-out: Plant response rating, Goosegrass): 100%
